# Data published in US9248108B2 (Ottawa Hospital Research Institute, priority 2012, dated 2016).
# Marks after values point to notes of the source that are not given here.
# Legend:
# [1] = system: GV oocytes from 7-8-week-old CF1 mice; assay: In vitro maturation (IVM) of GV oocytes from young CF1 mice, metaphase II egg karyotyping (chromosome staining only); type: cell-based, mouse
# Procedure: Immature mouse oocytes (a.k.a. “GV oocytes” for the presence of intact germinal vesicle) from young CF1 mice (7-8 weeks of age) were cultured in medium (control) or medium containing 5 mM DFMO (Garcia-Faroldi et al., 2009).
# All metaphase II eggs were subjected to karyotype analyses and counted spreads that contained 18 or more chromosomes and in which all chromosomes were close together, to eliminate over-spread karyotypes. Only hyperploid eggs, those containing 21 or more chromosomes, were considered aneuploid, to avoid artifacts due to loss of chromosomes during preparation of chromosome spreads (Koehler et al., 2006). In this set of experiments, in which only DNA staining was employed, hyperploid oocytes that contained extra whole chromosomes (dyads) were not distinguished from those that contained separated sister(s), because it is often difficult to differentiate a small chromosome dyad and a single sister in telocentric chromosomes such as in mouse.
# Metaphase II eggs were karyotyped with chromosome staining only. N: total number of interpretable metaphase II spreads, with 18 or more chromosomes. Hypoploid: 18-19 chromosomes. Euploid: 20 chromosomes. Hyperploid: 21 chromosomes.
# Mice were euthanized by cervical dislocation 44-46 h after they were primed with 5 IU equine chorionic gonadotropin (eCG) intraperitonally. […] Ovaries were immediately removed and minced in M2 medium (Sigma; unless otherwise indicated, other chemicals used in this study were also purchased from Sigma) to release oocytes. Oocytes with a clear germinal vesicle (GV) were used for in vitro maturation (IVM) for 17 hours in IVM medium (αMEM medium supplemented with 5% fetal bovine serum and 1 mM L-glutamine) overlaid with mineral oil.
# Chromosome spread was carried out according to Hodges and Hunt (Hodges & Hunt, 2002) with minor modifications. In brief, oocytes or 2-cell embryos were collected in M2 medium. The zona pellucida was removed by treatment with 0.5 units/μl pronase at 37° C. for 20 sec. Zona-free oocytes/embryos were rinsed in M2 medium to detach polar bodies. The oocytes/embryos were individually plated onto glass slides (1-10 oocytes/embryos per slide) predipped in the fixative (prepared weekly and stored at 4° C.) containing 1% paraformaldehyde (w/v), 0.15% Triton X-100 (v/v), and 3 mM dithiothreitol, pH 9.2. Slides were kept overnight in moist boxes at room temperature. The slides were then rinsed in 0.5% Kodak Flo (Eastman Kodak Company, Rochester, N.Y.) solution and air-dried. The slides were incubated in 1:200 diluted human anti-centromere serum (Immunovision, Springdale, Ark.) in PBS containing 1% BSA overnight at 4° C., in 1:300 diluted secondary antibody (goat anti-human) conjugated with rhodamine (Jackson ImmunoResearch) in PBS-BSA for 1 h at room temperature, and 0.1% SYTOX green (Invitrogen, Eugene, Oreg.) in PBS for 30 min at room temperature. To avoid bias, the slides were coded by a colleague before being examined by an investigator using epifluorescence microscopy and photographed. Decoding was done after karyotypes were tabulated.
# [2] = system: young (7-8 weeks) CF1 mice; assay: DFMO in mouse drinking water, karyotyping of oviduct-derived metaphase II eggs; type: in vivo
# Source text: The effect of DFMO on egg aneuploidy in vivo was also examined. […] Oviduct-derived metaphase II eggs, from control mice and DFMO treated mice, were subjected to karyotype analyses. In these and all subsequent egg karyotype analyses, anti-CREST antibodies were used to label centromeres (Hodges & Hunt, 2002), in addition to DNA staining. This modification allowed unambiguous identification of single sister chromatid(s) in metaphase II eggs, termed premature separation of sister chromatids (PSSC), the predominant form of mouse egg aneuploidies found in this study (see Table 3).
# Hypoploid: 18-19 dyads. Euploid: 20 dyads. Hyperploid: 21 or 22 dyads. […] Aneuploid: 2×hyperploid+PSSC. Detailed breakdowns are in Table 7.
# In order to collect mature (metaphase II) oocytes in vivo (ovulation experiments) each mouse was injected with 5 IU human chorionic gonadotropin (hCG) intraperitoneally 44-46 h after eCG priming. The animals were euthanized 16-18 h after hCG injection and MII eggs were flushed out of oviducts in M2 medium and subjected to karyotype analyses as described below. For mice that were treated with 1% DFMO in drinking water, the drugs were present until the time of euthanization (see FIG. 4 for details).
# (§1) Decoding was done after karyotypes were tabulated.
# [3] = system: GV oocytes from young hybrid F1 females (C57BL/6 x SPRET/Ei); assay: IVM of GV oocytes from young hybrid F1 females, metaphase II egg karyotyping; type: cell-based, mouse; conditions: 17 h IVM, 5 mM DFMO
# Procedure: Table 8 DFMO increases the egg aneuploidy rate of young hybrid F1 females. GV oocytes isolated from young (7-8 weeks) hybrid F1 females, via crossing C57BL/6 females and SPRET/Ei males, were incubated for 17 h in αMEM (control) or αMEM containing 5 mM DFMO. […] Hypoploid: 18-19 dyads. Euploid: 20 dyads. Hyperploid: 21 or 22 dyads. […] Aneuploid: 2×hyperploid+PSSC. Detailed breakdowns are in Table 9.
# Two other mouse models were additionally used. First, DFMO was tested as a potential treatment to […] egg aneuploidy in the hybrid F1 females that has a high baseline aneuploidy rate similar to human (Koehler et al., 2006).
# as §1
# [4] = system: 2-cell embryos of young CF1 mice; assay: DFMO in mouse drinking water prior to mating, 2-cell embryo karyotyping; type: in vivo
# Procedure: Table 10 DFMO in mouse drinking water increases hyperploid 2-cell embryos. Young (7-8 weeks) CF1 mice were treated with regular water (control), or 1% DFMO drinking water for 48 h, prior to mating (see FIG. 5 for details). Embryos (2-cell) were isolated and subjected to karyotype analyses. N: Total interpretable 2-cell embryos. Euploid: 40 chromosomes in each of the two blastomeres, or 40 chromosomes in one blastomere with the other blastomere having less than 40 chromosomes or uninterpretable/lost. Hypoploid: 39 chromosomes in each of the two blastomeres, or 39 in one blastomere with the other less than 39 or uninterpretable/lost. Hyperploid: 41 chromosomes in at least one blastomere (we found no 42 or more chromosomes in this study). Detailed breakdowns are in Table 11.
# To produce 2-cell embryos, mice were sequentially injected with eCG and hCG, as above for ovulation. After hCG injection, the females were caged singly with fertile young males overnight. For mice that were treated with 1% DFMO, the drug was withdrawn, and normal water resumed, at the time of hCG injection (see […] for details). The females were separated from the males in the next morning (day 1 post coital or p.c.). Females were euthanized in the late morning on day 2 p.c., and the embryos were collected by flushing the oviducts with M2 medium. After three rinses in KSOM medium, the embryos were cultured 17 h in KSOM containing 0.02 μg/ml colchicine to cause metaphase arrest of the 2-cell embryos.
# as §1
# [5] = biological target: T1, ovarian ODC (Mus musculus, UniProt P00860); assay: Ovarian ODC activity assay; type: in vivo; conditions: 1% DFMO in drinking water, hCG-stimulated 8-week-old mice
# T1 construct: The ovarian homogenates were centrifuged at 16,000×g for 10 min; Supernatants were applied to ODC assays; from tissue; host or cells: mouse ovary (C57BL/6, 8 weeks old, hCG-stimulated), homogenate supernatant
# T1 sequence (P00860 1-461): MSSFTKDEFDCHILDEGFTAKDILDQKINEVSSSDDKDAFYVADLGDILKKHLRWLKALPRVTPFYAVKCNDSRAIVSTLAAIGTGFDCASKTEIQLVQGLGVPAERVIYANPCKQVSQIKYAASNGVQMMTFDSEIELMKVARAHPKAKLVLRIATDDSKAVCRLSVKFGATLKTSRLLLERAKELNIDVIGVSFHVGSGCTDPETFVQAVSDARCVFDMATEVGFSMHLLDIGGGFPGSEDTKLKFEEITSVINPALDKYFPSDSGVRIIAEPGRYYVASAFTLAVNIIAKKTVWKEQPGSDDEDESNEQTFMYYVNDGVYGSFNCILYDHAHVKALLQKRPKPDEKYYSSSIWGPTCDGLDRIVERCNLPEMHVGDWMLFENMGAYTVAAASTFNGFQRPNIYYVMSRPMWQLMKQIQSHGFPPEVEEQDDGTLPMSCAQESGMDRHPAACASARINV
# Procedure: After 44-46 h eCG priming, or 6 h following the subsequent hCG injection, the ovaries were collected into Eppendorf tubes and frozen at −80° C. immediately till use. The ovaries were weighed and minced with optical scissors. Lysis buffer (25 mM Tris/HCl pH 7.2, 2 mM dithiothreitol, 0.1 mM EDTA, 0.25 M sucrose, 0.1% Triton X-100 (v/v); modified from Bastida et al. (Bastida et al., 2005) was added 25 μL per mg ovarian tissues and the resulting suspension homogenized by sonication (Fisher Sonic Demembrator, New York, USA) for 20 seconds thrice. The ovarian homogenates were centrifuged at 16,000×g for 10 min. Supernatants were applied to ODC assays (Zhou et al., 2009) in microtiter plates, each well containing 50 μL of lysate, plus 0.1 mM pyridoxyl-5-phosphate and 0.5 μCi (57.1 mCi/mmol) of 14C-labeled ornithine (PerkinElmer, Boston, Mass.). The wells were tightly covered with 3MM paper pre-wet in freshly prepared water-saturated Ba(OH)2. The wells were incubated 1 h at 37° C. ^14CO2 released from decarboxylation reaction formed Ba^14CO3 precipitates on filter. […] The Storage phosphor screen was then scanned on Typhoon™ imaging system (GE Healthcare Life Sciences), resulting in digital images that were then quantified by Image Quant5.2 (GE Healthcare Life Sciences). ODC activity is expressed as relative light intensity in arbitrary units.
# [6] = system: ovarian polyamines; assay: Ovarian polyamine quantification by ion chromatography; type: in vivo, mouse; conditions: 1% DFMO in drinking water for 48 hours up to sacrifice
# Procedure: A Dionex ion chromatography system was used to analyze polyamines during ovulation. This system employs an online conductivity detector coupled with an anion suppressor such that only cations are detected. Ovaries were extracted in 5% trichloric acid (TCA) followed by extraction with diethyl ether. The TCA extracts were diluted in water before being applied to the ion chromatography system.
# Polyamines from ovarian samples were determined by ion chromatography (IC) system (Rey and Pohl, 2003. J. Chromatography A 997:199-206). Ovaries were collected immediately after animal sacrifice and stored at −80° C. until use. The samples were thawed and minced, and then 5% trichloroacetic acid (TCA) was added (20 μl/mg). The samples were ultra-sonicated 30 seconds thrice. After centrifugation, the supernatants were extracted twice with diethyl ether. The mouse blood was collected in a tube containing 1 iu/ml heparin (LEO). After centrifugation, the supernatant (plasma) was collected and 10% TCA was added by 1:1 in volume. These plasma samples were extracted twice with diethyl ether, as noted above. The extracts were diluted 10 times in water for polyamine analysis on Dionex Ion ICS-2100 system (Thermo scientific, Dionex, Sunnyvale, Calif., USA) according to the manufacture instructions, using the support software of PeakNet 6.40 SP5 Build 778.
# [7] = number of ovulated MII eggs, 1% DFMO drinking water 48 h
# [8] = number of 2-cell embryos, 1% DFMO drinking water 48 h prior to mating
# [9] = percent of interpretable 2-cell embryos, 1% DFMO drinking water 48 h
smiles,measurement,setting,value
"NCCC[C@](N)(C(=O)O)C(F)F [DFMO, α-difluoromethylornithine]",first polar body emission,"[1]; 5 mM DFMO in IVM medium, 776/945",82%
same,% Hyperploidy,"[1]; 17 h IVM, 5 mM",4.9 * %
same,Hypoploid 18,"[1]; number of MII eggs with 18 chromosomes, 17 h IVM, 5 mM each agent in αMEM",2
same,Hypoploid 19,"[1]; number of MII eggs with 19 chromosomes, 17 h IVM, 5 mM",18
same,Eupoloid 20,"[1]; number of MII eggs with 20 chromosomes, 17 h IVM, 5 mM",175
same,Hyperploid 21,"[1]; number of MII eggs with 21 chromosomes, 17 h IVM, 5 mM",10
same,Hyperploid 22,"[1]; number of MII eggs with 22 chromosomes, 17 h IVM, 5 mM",0
same,% Hyperploidy,[2]; 1% DFMO drinking water 48 h,1.1** %
same,number of MII eggs collected from the oviducts,"[2]; 1% DFMO drinking water, n=37",29.3 /mouse
same,% Aneuploidy,"[2]; Aneuploid: 2×hyperploid+PSSC, 1% DFMO drinking water 48 h",7.7%
same,PSSC,"[2]; number of eggs with separated sister chromatid(s), 1% DFMO drinking water 48 h",14*
same,Eupoloid 20,[2]; [7],191
same,Hyperploid 21,[2]; [7],3
same,Hyperploid 22,[2]; [7],0
same,Hypoploid 18,[2]; [7],12
same,Hypoploid 19,[2]; [7],41
same,% Hyperploidy,[3],2.5** %
same,% Aneuploidy,[3]; Aneuploid: 2×hyperploid+PSSC,22.5%
same,Euploid 20,[3]; number of MII eggs,50
same,Hyperploid 21,[3]; number of MII eggs,2
same,Hyperploid 22,[3]; number of MII eggs,0
same,Hypoploid 18,[3]; number of MII eggs,5
same,Hypoploid 19,[3]; number of MII eggs,9
same,PSSC,[3]; number of MII eggs,14*
same,Euploid 40,[4]; [8],38
same,Hyperploid 41,[4]; [8],5
same,Hypoploid 39,[4]; [8],5
same,Euploid 40,[4]; [9],79.2%
same,Hyperploid 41,[4]; [9],10.4%
same,Hypoploid 39,[4]; [9],10.4%
same,ovarian ODC activity,[5],efficiently inhibited
same,hCG-mediated ovarian putrescine increase,[6],completely eliminated
